From patent EP4722207A1, “OXOISOINDOLINYL-SUBSTITUTED TETRAHYDROPYRIMIDINEDIONE DERIVATIVE AND USE THEREOF” (Gluetacs Therapeutics (Shanghai) Co., Ltd., priority 2023, dated 2024)

Tests used:
Format in all cases: cell-based
Settings in all cases: compounds at 50 nM and 500 nM, 24 hours
WEE1 = target: T1, WEE1 (Homo sapiens, UniProt P30291+Q96SW2); assay: Western-blot assay, substrate protein degradation in hPBMCs: WEE1
T1 construct: effects of the compounds of the present disclosure on the expression of target proteins in cells; endogenous in cells; host or cells: human PBMCs (hPBMCs)

IKZF1 = target: T2, IKZF1 (Homo sapiens, UniProt Q13422+Q96SW2); assay: Western-blot assay, substrate protein degradation in hPBMCs: IKZF1
T2 construct: effects of the compounds of the present disclosure on the expression of target proteins in cells; endogenous in cells; host or cells: human PBMCs (hPBMCs)

IKZF2 = target: T3, IKZF2 (Homo sapiens, UniProt Q96SW2+Q9UKS7); assay: Western-blot assay, substrate protein degradation in hPBMCs: IKZF2
T3 construct: effects of the compounds of the present disclosure on the expression of target proteins in cells; endogenous in cells; host or cells: human PBMCs (hPBMCs)

IKZF3 = target: T4, IKZF3 (Homo sapiens, UniProt Q96SW2+Q9UKT9); assay: Western-blot assay, substrate protein degradation in hPBMCs: IKZF3
T4 construct: effects of the compounds of the present disclosure on the expression of target proteins in cells; endogenous in cells; host or cells: human PBMCs (hPBMCs)

CK1α = target: T5, CK1α (Homo sapiens, UniProt P48729+Q96SW2); assay: Western-blot assay, substrate protein degradation in hPBMCs: CK1α
T5 construct: effects of the compounds of the present disclosure on the expression of target proteins in cells; endogenous in cells; host or cells: human PBMCs (hPBMCs)

GSPT1 = target: T6, GSPT1 (Homo sapiens, UniProt P15170+Q96SW2); assay: Western-blot assay, substrate protein degradation in hPBMCs: GSPT1
T6 construct: effects of the compounds of the present disclosure on the expression of target proteins in cells; endogenous in cells; host or cells: human PBMCs (hPBMCs)
T6 sequence (P15170 whole entry): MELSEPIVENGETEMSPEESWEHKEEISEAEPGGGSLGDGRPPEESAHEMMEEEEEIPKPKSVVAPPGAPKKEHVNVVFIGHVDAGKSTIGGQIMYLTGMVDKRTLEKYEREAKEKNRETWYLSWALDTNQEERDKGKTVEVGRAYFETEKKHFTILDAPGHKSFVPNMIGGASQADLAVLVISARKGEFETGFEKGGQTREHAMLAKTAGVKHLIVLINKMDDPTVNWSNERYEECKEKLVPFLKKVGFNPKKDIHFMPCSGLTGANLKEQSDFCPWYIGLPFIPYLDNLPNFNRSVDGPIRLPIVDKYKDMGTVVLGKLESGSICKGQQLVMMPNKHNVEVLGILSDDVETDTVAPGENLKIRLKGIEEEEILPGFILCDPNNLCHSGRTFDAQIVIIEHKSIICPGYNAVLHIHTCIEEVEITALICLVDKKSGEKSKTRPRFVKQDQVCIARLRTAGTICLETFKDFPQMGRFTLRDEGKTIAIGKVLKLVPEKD
T6 sequence (Q96SW2 whole entry): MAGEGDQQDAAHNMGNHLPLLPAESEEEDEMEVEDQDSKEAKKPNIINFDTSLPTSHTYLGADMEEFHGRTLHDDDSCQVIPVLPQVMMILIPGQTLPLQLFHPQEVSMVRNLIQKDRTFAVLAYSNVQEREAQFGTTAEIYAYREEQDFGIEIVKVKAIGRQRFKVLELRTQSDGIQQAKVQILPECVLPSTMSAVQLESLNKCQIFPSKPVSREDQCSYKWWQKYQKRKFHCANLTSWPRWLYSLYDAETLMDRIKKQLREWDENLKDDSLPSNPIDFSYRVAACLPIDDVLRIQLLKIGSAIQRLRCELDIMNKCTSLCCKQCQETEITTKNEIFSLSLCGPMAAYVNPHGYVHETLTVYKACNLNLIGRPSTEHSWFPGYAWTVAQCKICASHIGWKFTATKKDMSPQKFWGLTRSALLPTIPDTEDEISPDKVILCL
T6 sequence (Q16531 whole entry partner): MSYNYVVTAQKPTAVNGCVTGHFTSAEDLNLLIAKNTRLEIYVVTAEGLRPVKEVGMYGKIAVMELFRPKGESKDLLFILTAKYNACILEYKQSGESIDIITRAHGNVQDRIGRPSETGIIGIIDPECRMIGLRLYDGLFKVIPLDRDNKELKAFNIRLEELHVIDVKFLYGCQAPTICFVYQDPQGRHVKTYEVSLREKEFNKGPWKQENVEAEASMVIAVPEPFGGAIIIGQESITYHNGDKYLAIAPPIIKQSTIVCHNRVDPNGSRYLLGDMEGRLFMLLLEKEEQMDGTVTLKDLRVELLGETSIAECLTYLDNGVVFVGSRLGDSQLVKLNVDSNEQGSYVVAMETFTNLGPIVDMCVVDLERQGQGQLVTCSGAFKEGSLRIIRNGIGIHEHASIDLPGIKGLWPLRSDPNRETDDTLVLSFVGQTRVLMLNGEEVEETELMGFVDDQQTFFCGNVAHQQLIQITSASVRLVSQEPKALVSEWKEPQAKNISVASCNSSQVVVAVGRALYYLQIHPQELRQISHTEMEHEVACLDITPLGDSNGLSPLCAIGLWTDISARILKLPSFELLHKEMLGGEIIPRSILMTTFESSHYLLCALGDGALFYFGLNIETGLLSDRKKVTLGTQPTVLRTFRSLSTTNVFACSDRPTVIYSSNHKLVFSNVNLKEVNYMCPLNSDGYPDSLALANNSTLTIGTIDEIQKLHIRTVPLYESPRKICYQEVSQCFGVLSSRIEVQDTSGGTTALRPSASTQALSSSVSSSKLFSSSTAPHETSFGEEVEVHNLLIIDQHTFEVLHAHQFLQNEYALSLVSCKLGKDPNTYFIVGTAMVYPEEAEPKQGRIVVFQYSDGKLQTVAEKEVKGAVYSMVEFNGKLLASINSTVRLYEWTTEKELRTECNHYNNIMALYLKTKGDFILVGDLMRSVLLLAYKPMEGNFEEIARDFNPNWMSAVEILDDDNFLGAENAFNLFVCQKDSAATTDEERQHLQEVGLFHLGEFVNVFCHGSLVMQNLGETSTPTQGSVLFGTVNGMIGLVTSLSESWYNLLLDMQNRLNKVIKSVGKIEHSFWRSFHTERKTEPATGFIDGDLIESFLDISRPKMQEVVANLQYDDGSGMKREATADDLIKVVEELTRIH

T1 sequence (P30291 whole entry): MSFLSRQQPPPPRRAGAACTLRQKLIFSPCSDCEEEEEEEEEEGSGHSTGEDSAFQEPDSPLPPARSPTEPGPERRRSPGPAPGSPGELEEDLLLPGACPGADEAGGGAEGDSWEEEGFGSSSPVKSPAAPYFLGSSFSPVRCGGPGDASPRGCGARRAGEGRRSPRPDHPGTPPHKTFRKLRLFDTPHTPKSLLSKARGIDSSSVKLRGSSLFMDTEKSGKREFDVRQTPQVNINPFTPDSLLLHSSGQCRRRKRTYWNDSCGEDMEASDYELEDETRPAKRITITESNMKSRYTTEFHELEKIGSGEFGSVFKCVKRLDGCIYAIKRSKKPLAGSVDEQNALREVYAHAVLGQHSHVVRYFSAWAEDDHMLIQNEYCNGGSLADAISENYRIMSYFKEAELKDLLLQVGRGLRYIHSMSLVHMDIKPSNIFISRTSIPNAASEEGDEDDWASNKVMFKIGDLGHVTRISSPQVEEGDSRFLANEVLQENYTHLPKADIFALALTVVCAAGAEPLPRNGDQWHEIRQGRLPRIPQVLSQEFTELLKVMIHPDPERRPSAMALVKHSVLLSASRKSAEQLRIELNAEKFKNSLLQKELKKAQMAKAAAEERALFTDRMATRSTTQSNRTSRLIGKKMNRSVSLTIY
T1 sequence (Q96SW2 whole entry): as the sequence (Q96SW2 whole entry) above
T1 sequence (Q16531 whole entry partner): as the sequence (Q16531 whole entry partner) above
T3 sequence (Q9UKS7 whole entry): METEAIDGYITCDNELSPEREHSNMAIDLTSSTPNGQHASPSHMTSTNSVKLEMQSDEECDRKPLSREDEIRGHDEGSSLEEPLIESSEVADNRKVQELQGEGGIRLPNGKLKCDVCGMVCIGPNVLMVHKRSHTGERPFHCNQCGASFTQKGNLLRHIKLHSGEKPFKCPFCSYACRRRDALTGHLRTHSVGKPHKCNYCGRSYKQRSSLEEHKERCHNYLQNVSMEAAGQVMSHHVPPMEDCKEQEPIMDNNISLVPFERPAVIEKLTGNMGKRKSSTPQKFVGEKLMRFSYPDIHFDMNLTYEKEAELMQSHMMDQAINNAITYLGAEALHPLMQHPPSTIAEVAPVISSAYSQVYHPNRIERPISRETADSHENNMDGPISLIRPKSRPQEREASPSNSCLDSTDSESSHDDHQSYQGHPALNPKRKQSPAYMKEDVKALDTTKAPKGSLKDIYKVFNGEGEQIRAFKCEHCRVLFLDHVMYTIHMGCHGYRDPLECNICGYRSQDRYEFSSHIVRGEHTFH
T3 sequence (Q96SW2 whole entry): as the sequence (Q96SW2 whole entry) above
T3 sequence (Q16531 whole entry partner): as the sequence (Q16531 whole entry partner) above
T2 sequence (Q13422 whole entry): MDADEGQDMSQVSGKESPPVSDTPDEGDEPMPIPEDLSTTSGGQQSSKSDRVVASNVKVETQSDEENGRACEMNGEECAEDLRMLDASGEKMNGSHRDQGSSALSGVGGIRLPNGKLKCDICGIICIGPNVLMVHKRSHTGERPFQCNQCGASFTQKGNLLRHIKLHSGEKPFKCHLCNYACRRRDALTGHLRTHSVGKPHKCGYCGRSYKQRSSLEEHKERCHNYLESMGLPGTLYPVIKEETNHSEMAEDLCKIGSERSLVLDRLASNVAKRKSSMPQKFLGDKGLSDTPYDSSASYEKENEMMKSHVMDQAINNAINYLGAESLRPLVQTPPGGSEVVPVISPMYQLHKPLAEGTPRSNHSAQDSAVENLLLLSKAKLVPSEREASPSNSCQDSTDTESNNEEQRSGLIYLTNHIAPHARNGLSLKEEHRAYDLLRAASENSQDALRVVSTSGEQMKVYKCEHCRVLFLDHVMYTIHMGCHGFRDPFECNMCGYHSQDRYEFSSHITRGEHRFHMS
T2 sequence (Q96SW2 whole entry): as the sequence (Q96SW2 whole entry) above
T2 sequence (Q16531 whole entry partner): as the sequence (Q16531 whole entry partner) above
T4 sequence (Q9UKT9 whole entry): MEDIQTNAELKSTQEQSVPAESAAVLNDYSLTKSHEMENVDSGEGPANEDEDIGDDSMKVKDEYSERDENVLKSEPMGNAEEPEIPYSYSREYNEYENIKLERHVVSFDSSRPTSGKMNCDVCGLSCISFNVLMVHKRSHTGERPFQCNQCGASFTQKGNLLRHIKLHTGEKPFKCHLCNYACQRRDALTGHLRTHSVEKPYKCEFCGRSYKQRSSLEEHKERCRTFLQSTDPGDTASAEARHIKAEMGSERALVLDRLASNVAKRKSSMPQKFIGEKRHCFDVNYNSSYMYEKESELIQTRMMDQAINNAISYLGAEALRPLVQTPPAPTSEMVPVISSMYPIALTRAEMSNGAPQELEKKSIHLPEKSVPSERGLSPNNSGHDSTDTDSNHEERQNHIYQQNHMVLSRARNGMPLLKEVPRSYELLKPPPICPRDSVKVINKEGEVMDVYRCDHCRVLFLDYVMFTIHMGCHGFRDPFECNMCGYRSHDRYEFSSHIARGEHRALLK
T4 sequence (Q96SW2 whole entry): as the sequence (Q96SW2 whole entry) above
T4 sequence (Q16531 whole entry partner): as the sequence (Q16531 whole entry partner) above

SMILES | WEE1 substrate protein remaining % (WEE1) | IKZF1 substrate protein remaining % (IKZF1) | IKZF2 substrate protein remaining % (IKZF2) | IKZF3 substrate protein remaining % (IKZF3) | CK1α substrate protein remaining % (CK1α) | GSPT1 substrate protein remaining % (GSPT1)
O=C1CCN(N2C(=O)c3ccc(CN4CCN(c5ccc(F)c(F)c5)CC4)cc3C2=O)C(=O)N1 [GT-06797, 5-((4-(3,4-difluorophenyl)piperazin-1-yl)methyl)-2-(2,4-dioxotetrahydropyrimidin-1(2H)-yl)isoindoline-1,3-dione] | A ("A" is defined as 0% ≤ substrate protein remaining % ≤ 80%) | B ("B" is defined as 80%< substrate protein remaining %≤ 100%) | B ("B" is defined as 80%< substrate protein remaining %≤ 100%) | B ("B" is defined as 80%< substrate protein remaining %≤ 100%) | B ("B" is defined as 80%< substrate protein remaining %≤ 100%) | B ("B" is defined as 80%< substrate protein remaining %≤ 100%)
O=C1CCN(N2C(=O)c3ccc(CN4CCC(c5ccccc5)CC4)cc3C2=O)C(=O)N1 [GT-06803, 2-(2,4-dioxotetrahydropyrimidin-1(2H)-yl)-5-((4-phenylpiperidin-1-yl)methyl)isoindoline-1,3-dione] | B ("B" is defined as 80%< substrate protein remaining %≤ 100%) | B ("B" is defined as 80%< substrate protein remaining %≤ 100%) | B ("B" is defined as 80%< substrate protein remaining %≤ 100%) | B ("B" is defined as 80%< substrate protein remaining %≤ 100%) | A ("A" is defined as 0% ≤ substrate protein remaining % ≤ 80%) | B ("B" is defined as 80%< substrate protein remaining %≤ 100%)
O=C1CCN(N2C(=O)c3ccc(CN4CCC(c5cccc(Br)c5)CC4)cc3C2=O)C(=O)N1 [GT-06804, 5-((4-(3-bromophenyl)piperidin-1-yl)methyl)-2-(2,4-dioxotetrahydropyrimidin-1(2H)-yl)isoindoline-1,3-dione] | B ("B" is defined as 80%< substrate protein remaining %≤ 100%) | B ("B" is defined as 80%< substrate protein remaining %≤ 100%) | B ("B" is defined as 80%< substrate protein remaining %≤ 100%) | B ("B" is defined as 80%< substrate protein remaining %≤ 100%) | A ("A" is defined as 0% ≤ substrate protein remaining % ≤ 80%) | B ("B" is defined as 80%< substrate protein remaining %≤ 100%)
O=C1CCN(N2C(=O)c3ccc(CN4CCC(c5ccc(Br)cc5)CC4)cc3C2=O)C(=O)N1 [GT-06805, 5-((4-(4-bromophenyl)piperidin-1-yl)methyl)-2-(2,4-dioxotetrahydropyrimidin-1(2H)-yl)isoindoline-1,3-dione] | B ("B" is defined as 80%< substrate protein remaining %≤ 100%) | B ("B" is defined as 80%< substrate protein remaining %≤ 100%) | B ("B" is defined as 80%< substrate protein remaining %≤ 100%) | B ("B" is defined as 80%< substrate protein remaining %≤ 100%) | A ("A" is defined as 0% ≤ substrate protein remaining % ≤ 80%) | B ("B" is defined as 80%< substrate protein remaining %≤ 100%)
O=C1CCN(N2C(=O)c3ccc(CN4CCC(c5ccccc5F)CC4)cc3C2=O)C(=O)N1 [GT-06877, 2-(2,4-dioxotetrahydropyrimidin-1(2H)-yl)-5-((4-(2-fluorophenyl)piperidin-1-yl)methyl)isoindoline-1,3-dione] | B ("B" is defined as 80%< substrate protein remaining %≤ 100%) | B ("B" is defined as 80%< substrate protein remaining %≤ 100%) | B ("B" is defined as 80%< substrate protein remaining %≤ 100%) | B ("B" is defined as 80%< substrate protein remaining %≤ 100%) | A ("A" is defined as 0% ≤ substrate protein remaining % ≤ 80%) | B ("B" is defined as 80%< substrate protein remaining %≤ 100%)
O=C1CCN(N2C(=O)c3ccc(CN4CCC(c5ccc(F)cc5)CC4)cc3C2=O)C(=O)N1 [GT-06878, 2-(2,4-dioxotetrahydropyrimidin-1(2H)-yl)-5-((4-(4-fluorophenyl)piperidin-1-yl)methyl)isoindoline-1,3-dione] | B ("B" is defined as 80%< substrate protein remaining %≤ 100%) | B ("B" is defined as 80%< substrate protein remaining %≤ 100%) | B ("B" is defined as 80%< substrate protein remaining %≤ 100%) | B ("B" is defined as 80%< substrate protein remaining %≤ 100%) | A ("A" is defined as 0% ≤ substrate protein remaining % ≤ 80%) | A ("A" is defined as 0% ≤ substrate protein remaining % ≤ 80%)
O=C1CCN(N2C(=O)c3ccc(CN4CCC(c5ccccc5C(F)(F)F)CC4)cc3C2=O)C(=O)N1 [GT-06879, 2-(2,4-dioxotetrahydropyrimidin-1(2H)-yl)-5-((4-(2-(trifluoromethyl)phenyl)piperidin-1-yl)methyl)isoindoline-1,3-dione] | B ("B" is defined as 80%< substrate protein remaining %≤ 100%) | B ("B" is defined as 80%< substrate protein remaining %≤ 100%) | B ("B" is defined as 80%< substrate protein remaining %≤ 100%) | B ("B" is defined as 80%< substrate protein remaining %≤ 100%) | B ("B" is defined as 80%< substrate protein remaining %≤ 100%) | A ("A" is defined as 0% ≤ substrate protein remaining % ≤ 80%)
O=C1CCN(N2C(=O)c3ccc(CN4CCC(c5cccc(C(F)(F)F)c5)CC4)cc3C2=O)C(=O)N1 [GT-06880, 2-(2,4-dioxotetrahydropyrimidin-1(2H)-yl)-5-((4-(3-(trifluoromethyl)phenyl)piperidin-1-yl)methyl)isoindoline-1,3-dione] | A ("A" is defined as 0% ≤ substrate protein remaining % ≤ 80%) | B ("B" is defined as 80%< substrate protein remaining %≤ 100%) | B ("B" is defined as 80%< substrate protein remaining %≤ 100%) | B ("B" is defined as 80%< substrate protein remaining %≤ 100%) | B ("B" is defined as 80%< substrate protein remaining %≤ 100%) | B ("B" is defined as 80%< substrate protein remaining %≤ 100%)
Cc1ccc(N2CCN(Cc3ccc4c(c3)CN(N3CCC(=O)NC3=O)C4=O)CC2)c(C)c1 [GT-06882, 1-(5-((4-(2,4-dimethylphenyl)piperazin-1-yl)methyl)-1-oxoisoindolin-2-yl)dihydropyrimidine-2,4(1H,3H)-dione] | A ("A" is defined as 0% ≤ substrate protein remaining % ≤ 80%) | A ("A" is defined as 0% ≤ substrate protein remaining % ≤ 80%) | B ("B" is defined as 80%< substrate protein remaining %≤ 100%) | B ("B" is defined as 80%< substrate protein remaining %≤ 100%) | B ("B" is defined as 80%< substrate protein remaining %≤ 100%) | A ("A" is defined as 0% ≤ substrate protein remaining % ≤ 80%)
Cc1ccc(Cl)cc1N1CCN(Cc2ccc3c(c2)CN(N2CCC(=O)NC2=O)C3=O)CC1 [GT-06883, 1-(5-((4-(5-chloro-2-methylphenyl)piperazin-1-yl)methyl)-1-oxoisoindolin-2-yl)dihydropyrimidine-2,4(1H,3H)-dione] | A ("A" is defined as 0% ≤ substrate protein remaining % ≤ 80%) | A ("A" is defined as 0% ≤ substrate protein remaining % ≤ 80%) | B ("B" is defined as 80%< substrate protein remaining %≤ 100%) | B ("B" is defined as 80%< substrate protein remaining %≤ 100%) | B ("B" is defined as 80%< substrate protein remaining %≤ 100%) | A ("A" is defined as 0% ≤ substrate protein remaining % ≤ 80%)
O=C1CCN(N2Cc3cc(CN4CCC(c5ccc(Br)cc5)CC4)ccc3C2=O)C(=O)N1 [GT-06886, 1-(5-((4-(4-bromophenyl)piperidin-1-yl)methyl)-1-oxoisoindolin-2-yl)dihydropyrimidine-2,4(1H,3H)-dione] | B ("B" is defined as 80%< substrate protein remaining %≤ 100%) | B ("B" is defined as 80%< substrate protein remaining %≤ 100%) | A ("A" is defined as 0% ≤ substrate protein remaining % ≤ 80%) | B ("B" is defined as 80%< substrate protein remaining %≤ 100%) | B ("B" is defined as 80%< substrate protein remaining %≤ 100%) | A ("A" is defined as 0% ≤ substrate protein remaining % ≤ 80%)
O=C1CCN(N2Cc3cc(CN4CCC(c5ccccc5Cl)CC4)ccc3C2=O)C(=O)N1 [GT-06887, 1-(5-((4-(2-chlorophenyl)piperidin-1-yl)methyl)-1-oxoisoindolin-2-yl)dihydropyrimidine-2,4(1H,3H)-dione] | A ("A" is defined as 0% ≤ substrate protein remaining % ≤ 80%) | B ("B" is defined as 80%< substrate protein remaining %≤ 100%) | A ("A" is defined as 0% ≤ substrate protein remaining % ≤ 80%) | B ("B" is defined as 80%< substrate protein remaining %≤ 100%) | B ("B" is defined as 80%< substrate protein remaining %≤ 100%) | A ("A" is defined as 0% ≤ substrate protein remaining % ≤ 80%)
